Patent publication US8420100B2, “Tumor suppressor activating polypeptides and uses thereof” (Department of Biotechnology, priority 2006, dated 2013)
“Also recorded” adds a separate entry of the source.

Key:
[1] = system: tumor vasculature of B16F1-induced tumors; assay: Hematoxylin and eosin histopathology of B16F1-induced tumors; assay type: in vivo, mouse; details: tumors excised from treated mice
From the text: Histopathological changes in the subcutaneous tumors: To analyze the tumor vasculature of TAT PTD, SM treated and P44 treated mice, the tumor sections were stained with HE. […] In SM treated tumors, due to compressed vessels, the shape of RBCs were also distorted (FIG. 7A, lower right panel, arrow marked). […] The presence of hypoxic cells is a hallmark of cancer (Brown, J. M., and Wilson, W. R. (2004) Nat. Rev. Cancer 4, 437-447; Minchinton, A. I., and Tannock, I. F. (2006) Nat. Rev. Cancer 6, 583-592). Cellular responses to hypoxia are triggered by the hypoxia inducible factor-1 alpha (HIF-1α) that is known to restore tissue homeostasis in hypoxic conditions (Semenza, G. L. (2000) Genes Dev. 14, 1983-1991). To determine the status of HIF-1α expression, immunohistochemical analysis was performed on tumor sections obtained from SM and P44 treated mice by using antibody against HIF-1 α. […] All these observations implicate the significance of P44 peptide in restoring tissue architecture in tumor cells and thus potentiates its role as a tumor regressor.
FIG. 7. Histopathological changes in B16F1-induced tumors. A, Hematoxylin and eosin staining of tumor sections excised from mice treated with either P44 (upper panel) or SM (lower panel) peptide. […] The images have been recorded at 20× and 40×. B, Immunohistochemistry of paraffin embedded tumor sections from P44 treated as well as, SM treated mice. After antigen unmasking, sections were stained with HIF-1α antibody (middle panel) and detected using Cy-3 conjugated mouse immunoglobulin. Sections were counterstained with DAP1 for nuclear localization (left panel). Right panel corresponds to the merged image.

[2] = system: cell cycle regulatory genes; assay: Microarray gene expression upon P44 treatment; assay type: cell-based
[3] = system: B16F1 mouse melanoma cells; assay: B16F1 melanoma tumor regression in nude mice; assay type: in vivo; details: for anti-tumorigenic activity (tumor regression): xenograft tumor nude mice model
Procedure: P44 peptide: A potent tumor regressor: To test whether the differences in SMAR1 derived peptide-induced activation of p53 translated to differences in drug sensitivity in vivo, B16F1 mouse melanoma cells were subcutaneously grafted into athymic nude mice, and tumor growth together with therapeutic sensitivity was monitored. Once the tumor nodule was established into the mouse, P44 peptide was injected in the tumor localized areas at a physiological dose of 200 μg/mouse thrice a week. The treatment was continued for 4 weeks. In a parallel experiment, either TAT PTD or TAT-SMAR1 RS mutant peptide, SM (FIGS. 6A and B, respectively) was injected in tumor bearing mice to be used as control.
FIG. 6D-F corresponds to the magnified tumor images of FIG. 6A-C, respectively. […] Thus, P44 peptide mimics the function of full-length SMAR1 in drastically reducing the tumor growth.
FIG. 6. Tumor regression by TAT-SMAR1 WT peptide. A, Nude mice were allowed to develop tumors by subcutaneously injecting B 16F1 mouse melanoma cells. Mice with size-matched tumors were then randomized into three treatment groups (five animals per group); TAT PTD alone (panel A), TAT-SMART RS mutant (SM) (panel B) and TAT-SMAR1 WT (P44) (panel C). Panels D, E and F correspond to the magnified images of panels A, B and C, respectively. Mice were treated with either of the peptides at a dose of 200 μg/mice/thrice a week for consecutive 4 weeks. The tumors were then weighed and plotted for each mouse in all the treatment groups (panel G).
Animal model for tumorgenesis: B16F1 mouse melanoma cells in the exponential growth phase were trypsinized (Invitrogen) and washed twice with PBS. Cell number and viability was assessed and cell cultures with viability >90% were used. Tumors were then established in nude mice by subcutaneous injection of 2×10^6 B16F1 cells. Five mice were used in each set of experiments. The mice were maintained under pathogen-free conditions. When the subcutaneous tumor was clearly visible, the TAT-SMAR1 WT (P44) peptide treatment was started. The P44 peptide was subcutaneously injected proximal to the tumor sites at a dose of 200 μg/mouse thrice a week. The treatment was administered for 4 weeks. For control treatment, TAT PTD alone and TAT SMAR1 RS mutant peptide (SM) were injected in the same manner as the P44 peptide.

Sequence | inter-vessel distance compared to SM-treated tumors [1] | tumor vascular architecture (HE staining) [1] | expression of genes involved in regulating mitosis, MAPK signaling and cell cycle checkpoints [2] | expression of proteins involved in ubiquitin-proteasome signaling [2] | regression in tumor compared to TAT-injected or SM injected mice ([3]; nude mice, 200 μg/mouse thrice a week, 4 weeks, injected at tumor site) | anti-tumorigenic activity (tumor regression) [3] | tumor weight after excision ([3]; nude mice, 200 μg/mouse thrice a week, 4 weeks) [g]
YGRKKRRQRRRTAWRRKQRGQSLAVKSFSRRTPSSSSYSASETM [P44, 33 mer SMAR1 peptide (residues 324-357) conjugated with 11-mer TAT-PTD] | significantly less | intact vasculature | significant decreased expression | reduced expression | 5-7 fold | strongly regressed tumors | 
YGRKKRRQRRRTAWRRKQRGQSLAVKSFSRRTPAAAAYSASETM [SM, P44 mutant where serine residues from 347-350 were replaced by alanines] |  | leaky vascular architecture; also recorded: poorly organized vascular architecture and compressed blood vessels |  |  |  | significantly reduced | 1.2 to 2.5
